# Test results taken from PubChem BioAssay (NCI).
#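 Each compound was tested at five concentrations against cells in 96-well plates for 48 hours. GI50: concentration for 50% inhibition of growth. At the TGI there is no net growth.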
# Experiments:
# Assay in all cases: inhibition of tumour cell growth, NCI panel, 48 h
# M14 melanoma = system: M14 melanoma
# RPMI-8226 leukemia = system: RPMI-8226 leukemia
# SK-MEL-28 melanoma = system: SK-MEL-28 melanoma
# OVCAR-5 ovarian = system: OVCAR-5 ovarian
# LOX IMVI melanoma = system: LOX IMVI melanoma
# HOP-92 NSCLC = system: HOP-92 NSCLC
# SR leukemia = system: SR leukemia
# T-47D breast = system: T-47D breast
# OVCAR-4 ovarian = system: OVCAR-4 ovarian
# SF-539 CNS = system: SF-539 CNS
# PC-3 prostate = system: PC-3 prostate
# OVCAR-8 ovarian = system: OVCAR-8 ovarian
# UO-31 renal = system: UO-31 renal
# HL-60(TB) leukemia = system: HL-60(TB) leukemia
# UACC-62 melanoma = system: UACC-62 melanoma
# MOLT-4 leukemia = system: MOLT-4 leukemia
# MALME-3M melanoma = system: MALME-3M melanoma
# RXF 393 renal = system: RXF 393 renal
# NCI-H226 lung = system: NCI-H226 lung
# NCI-H23 lung = system: NCI-H23 lung
# ACHN renal = system: ACHN renal
# SK-OV-3 ovarian = system: SK-OV-3 ovarian
# K-562 leukemia = system: K-562 leukemia
# SK-MEL-2 melanoma = system: SK-MEL-2 melanoma
# HCT-116 colon = system: HCT-116 colon
# HCT-15 colon = system: HCT-15 colon
# SW-620 colon = system: SW-620 colon
# CAKI-1 renal = system: CAKI-1 renal
# OVCAR-3 ovarian = system: OVCAR-3 ovarian
# HCC-2998 colon = system: HCC-2998 colon
# SNB-75 CNS = system: SNB-75 CNS
# A498 renal = system: A498 renal
# HT29 colon = system: HT29 colon
# A549 NSCLC = system: A549 NSCLC
# UACC-257 melanoma = system: UACC-257 melanoma
# MDA-MB-435 = system: MDA-MB-435
# SK-MEL-5 melanoma = system: SK-MEL-5 melanoma
# KM12 colon = system: KM12 colon
# TK-10 renal = system: TK-10 renal
# SN12C renal = system: SN12C renal
# DU-145 prostate = system: DU-145 prostate
# HOP-62 NSCLC = system: HOP-62 NSCLC
# SF-268 CNS = system: SF-268 CNS
# SF-295 CNS = system: SF-295 CNS
# U251 CNS = system: U251 CNS
# NCI/ADR-RES ovarian = system: NCI/ADR-RES ovarian
# IGROV1 ovarian = system: IGROV1 ovarian
# NCI-H460 lung = system: NCI-H460 lung
# MDA-MB-231 breast = system: MDA-MB-231 breast
# BT-549 breast = system: BT-549 breast
# HS 578T breast = system: HS 578T breast
# COLO 205 colon = system: COLO 205 colon
# NCI-H522 lung = system: NCI-H522 lung
# 786-0 renal = system: 786-0 renal
# MCF7 breast = system: MCF7 breast
# SNB-19 CNS = system: SNB-19 CNS
smiles,measurement,setting,value
COc1ccc(C2C=C(c3ccc(OC)c(OC)c3)N=C3SC=CN32)c(Br)c1 (configuration not stated),GI50,M14 melanoma,2.23 µM
same,TGI,M14 melanoma,5.32 µM
same,GI50,RPMI-8226 leukemia,1.77 µM
same,TGI,RPMI-8226 leukemia,5.98 µM
same,GI50,SK-MEL-28 melanoma,2.3 µM
same,TGI,SK-MEL-28 melanoma,5.62 µM
same,GI50,OVCAR-5 ovarian,6.44 µM
same,TGI,OVCAR-5 ovarian,28.4 µM
same,GI50,LOX IMVI melanoma,1.88 µM
same,TGI,LOX IMVI melanoma,3.74 µM
same,GI50,HOP-92 NSCLC,8.66 µM
same,TGI,HOP-92 NSCLC,38.3 µM
same,GI50,SR leukemia,1.95 µM
same,TGI,SR leukemia,4.79 µM
same,GI50,T-47D breast,3.2 µM
same,TGI,T-47D breast,11.5 µM
same,GI50,OVCAR-4 ovarian,7.1 µM
same,TGI,OVCAR-4 ovarian,49.4 µM
same,GI50,SF-539 CNS,1.87 µM
same,TGI,SF-539 CNS,4.18 µM
same,GI50,PC-3 prostate,3.88 µM
same,TGI,PC-3 prostate,41 µM
same,GI50,OVCAR-8 ovarian,3.2 µM
same,TGI,OVCAR-8 ovarian,17.1 µM
same,GI50,UO-31 renal,1.54 µM
same,TGI,UO-31 renal,3.77 µM
same,GI50,HL-60(TB) leukemia,3.06 µM
same,TGI,HL-60(TB) leukemia,23 µM
same,GI50,UACC-62 melanoma,2.47 µM
same,TGI,UACC-62 melanoma,7.06 µM
same,GI50,MOLT-4 leukemia,3.16 µM
same,TGI,MOLT-4 leukemia,30.6 µM
same,GI50,MALME-3M melanoma,13.5 µM
same,TGI,MALME-3M melanoma,32.6 µM
same,GI50,RXF 393 renal,2.08 µM
same,TGI,RXF 393 renal,3.98 µM
same,GI50,NCI-H226 lung,2.84 µM
same,TGI,NCI-H226 lung,25.5 µM
same,GI50,NCI-H23 lung,9.45 µM
same,TGI,NCI-H23 lung,27.3 µM
same,GI50,ACHN renal,2 µM
same,TGI,ACHN renal,4.33 µM
same,GI50,SK-OV-3 ovarian,4.52 µM
same,TGI,SK-OV-3 ovarian,16.7 µM
same,GI50,K-562 leukemia,2.82 µM
same,TGI,K-562 leukemia,> 100 µM
same,GI50,SK-MEL-2 melanoma,14.4 µM
same,TGI,SK-MEL-2 melanoma,29.8 µM
same,GI50,HCT-116 colon,1.52 µM
same,TGI,HCT-116 colon,3.25 µM
same,GI50,HCT-15 colon,1.76 µM
same,TGI,HCT-15 colon,5.13 µM
same,GI50,SW-620 colon,1.85 µM
same,TGI,SW-620 colon,3.77 µM
same,GI50,CAKI-1 renal,13.4 µM
same,TGI,CAKI-1 renal,33.8 µM
same,GI50,OVCAR-3 ovarian,2.24 µM
same,TGI,OVCAR-3 ovarian,4.91 µM
same,GI50,HCC-2998 colon,2.02 µM
same,TGI,HCC-2998 colon,3.71 µM
same,GI50,SNB-75 CNS,3.1 µM
same,TGI,SNB-75 CNS,14.3 µM
same,GI50,A498 renal,3.47 µM
same,TGI,A498 renal,17.1 µM
same,GI50,HT29 colon,2.02 µM
same,TGI,HT29 colon,4.26 µM
same,GI50,A549 NSCLC,2.4 µM
same,TGI,A549 NSCLC,7.86 µM
same,GI50,UACC-257 melanoma,2.98 µM
same,TGI,UACC-257 melanoma,12 µM
same,GI50,MDA-MB-435,2.8 µM
same,TGI,MDA-MB-435,10.5 µM
same,GI50,SK-MEL-5 melanoma,3.02 µM
same,TGI,SK-MEL-5 melanoma,10.1 µM
same,GI50,KM12 colon,1.83 µM
same,TGI,KM12 colon,3.5 µM
same,GI50,TK-10 renal,3.64 µM
same,TGI,TK-10 renal,15.3 µM
same,GI50,SN12C renal,4.77 µM
same,TGI,SN12C renal,21.2 µM
same,GI50,DU-145 prostate,3.44 µM
same,TGI,DU-145 prostate,11.6 µM
same,GI50,HOP-62 NSCLC,3.16 µM
same,TGI,HOP-62 NSCLC,11.1 µM
same,GI50,SF-268 CNS,3.42 µM
same,TGI,SF-268 CNS,14.3 µM
same,GI50,SF-295 CNS,11.5 µM
same,TGI,SF-295 CNS,26.9 µM
same,GI50,U251 CNS,1.6 µM
same,TGI,U251 CNS,3.24 µM
same,GI50,NCI/ADR-RES ovarian,4.59 µM
same,TGI,NCI/ADR-RES ovarian,61.2 µM
same,GI50,IGROV1 ovarian,2.25 µM
same,TGI,IGROV1 ovarian,5.51 µM
same,GI50,NCI-H460 lung,5.15 µM
same,TGI,NCI-H460 lung,25.8 µM
same,GI50,MDA-MB-231 breast,4.5 µM
same,TGI,MDA-MB-231 breast,21.3 µM
same,GI50,BT-549 breast,2.1 µM
same,TGI,BT-549 breast,5.71 µM
same,GI50,HS 578T breast,3.41 µM
same,TGI,HS 578T breast,> 100 µM
same,GI50,COLO 205 colon,4.56 µM
same,TGI,COLO 205 colon,16.4 µM
same,GI50,NCI-H522 lung,3.11 µM
same,TGI,NCI-H522 lung,11.7 µM
same,GI50,786-0 renal,2.72 µM
same,TGI,786-0 renal,8.22 µM
same,GI50,MCF7 breast,0.807 µM
same,TGI,MCF7 breast,2.24 µM
same,GI50,SNB-19 CNS,7.3 µM
same,TGI,SNB-19 CNS,21.6 µM
